For 23 compounds, AC50 results are on record in ChEMBL document CHEMBL1201862, “PubChem BioAssay data set” (2004).

Targets include Cytochrome P450 2C9 (Homo sapiens, UniProt P11712); Cytochrome P450 2D6 (Homo sapiens, UniProt P10635); Cytochrome P450 3A4 (Homo sapiens, UniProt P08684).
Another test deals with Cytochrome P450 2C19 (Homo sapiens, UniProt P33261). Nature of the test: Cytochrome panel assay with activity outcomes. Panel member name: p450-cyp2c19 Compounds with AC50 equal or less than 10 uM are considered active. The format is functional. As to conditions: read-out: AC50.
Cytochrome P450 2C19, sequence (P33261 whole entry): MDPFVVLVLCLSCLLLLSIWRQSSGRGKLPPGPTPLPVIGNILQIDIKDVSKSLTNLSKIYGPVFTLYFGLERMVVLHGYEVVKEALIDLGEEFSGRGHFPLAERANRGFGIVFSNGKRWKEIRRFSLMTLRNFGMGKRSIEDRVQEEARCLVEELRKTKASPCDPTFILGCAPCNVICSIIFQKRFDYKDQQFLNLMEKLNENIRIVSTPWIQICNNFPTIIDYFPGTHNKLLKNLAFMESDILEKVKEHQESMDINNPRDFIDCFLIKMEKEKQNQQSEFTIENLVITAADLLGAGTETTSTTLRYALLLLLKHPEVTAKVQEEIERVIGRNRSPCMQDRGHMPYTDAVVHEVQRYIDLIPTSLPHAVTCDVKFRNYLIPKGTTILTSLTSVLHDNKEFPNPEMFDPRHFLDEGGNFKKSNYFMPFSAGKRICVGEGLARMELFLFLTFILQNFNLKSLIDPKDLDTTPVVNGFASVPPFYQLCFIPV
The next test concerns the target T1, Cytochrome P450 1A2 (Homo sapiens, UniProt P05177).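 Also: PubChem cytochrome P450 panel assay, CYP1A2 panel member.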
T1 sequence (P05177 whole entry): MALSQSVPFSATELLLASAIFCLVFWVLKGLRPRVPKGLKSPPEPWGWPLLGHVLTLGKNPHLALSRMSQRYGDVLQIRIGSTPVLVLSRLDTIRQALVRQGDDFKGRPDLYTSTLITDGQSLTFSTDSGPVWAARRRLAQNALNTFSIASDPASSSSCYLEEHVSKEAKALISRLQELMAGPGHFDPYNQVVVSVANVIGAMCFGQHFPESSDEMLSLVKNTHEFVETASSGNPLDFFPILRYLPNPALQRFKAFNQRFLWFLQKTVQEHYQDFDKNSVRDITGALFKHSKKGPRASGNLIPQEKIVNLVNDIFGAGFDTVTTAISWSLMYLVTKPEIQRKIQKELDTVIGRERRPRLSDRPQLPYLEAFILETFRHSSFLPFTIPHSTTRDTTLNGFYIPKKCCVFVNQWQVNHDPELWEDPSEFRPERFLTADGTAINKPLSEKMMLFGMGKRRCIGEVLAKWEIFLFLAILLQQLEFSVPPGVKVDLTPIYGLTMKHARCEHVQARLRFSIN

Cytochrome P450 2C9, sequence (P11712 whole entry): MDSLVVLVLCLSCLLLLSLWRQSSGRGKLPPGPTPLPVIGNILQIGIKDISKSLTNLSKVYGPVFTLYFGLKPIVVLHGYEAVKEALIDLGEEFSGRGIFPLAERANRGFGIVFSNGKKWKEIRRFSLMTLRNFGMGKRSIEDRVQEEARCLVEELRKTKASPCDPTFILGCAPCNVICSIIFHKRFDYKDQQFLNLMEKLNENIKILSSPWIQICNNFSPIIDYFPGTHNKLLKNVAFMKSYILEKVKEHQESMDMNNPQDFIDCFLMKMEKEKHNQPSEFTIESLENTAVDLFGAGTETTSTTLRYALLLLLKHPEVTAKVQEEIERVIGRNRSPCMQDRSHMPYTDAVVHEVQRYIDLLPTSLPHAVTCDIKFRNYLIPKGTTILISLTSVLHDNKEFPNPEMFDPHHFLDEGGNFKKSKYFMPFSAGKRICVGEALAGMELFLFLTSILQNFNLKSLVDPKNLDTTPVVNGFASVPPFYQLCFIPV
Cytochrome P450 2D6, sequence (P10635 whole entry): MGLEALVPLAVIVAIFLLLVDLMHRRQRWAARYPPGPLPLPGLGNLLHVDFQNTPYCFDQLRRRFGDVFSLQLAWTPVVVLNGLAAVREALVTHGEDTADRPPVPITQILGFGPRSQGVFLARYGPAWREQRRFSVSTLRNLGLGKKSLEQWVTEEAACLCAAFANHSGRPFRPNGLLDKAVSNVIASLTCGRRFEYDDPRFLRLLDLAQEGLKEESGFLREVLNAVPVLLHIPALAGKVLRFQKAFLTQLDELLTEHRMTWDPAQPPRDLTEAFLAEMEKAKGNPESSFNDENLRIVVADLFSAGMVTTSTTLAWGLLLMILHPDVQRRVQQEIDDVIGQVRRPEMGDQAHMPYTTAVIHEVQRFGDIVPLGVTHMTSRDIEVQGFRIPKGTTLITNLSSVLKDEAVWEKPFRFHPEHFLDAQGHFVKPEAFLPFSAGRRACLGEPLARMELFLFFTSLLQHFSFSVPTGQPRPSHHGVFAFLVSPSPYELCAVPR
Cytochrome P450 3A4, sequence (P08684 whole entry): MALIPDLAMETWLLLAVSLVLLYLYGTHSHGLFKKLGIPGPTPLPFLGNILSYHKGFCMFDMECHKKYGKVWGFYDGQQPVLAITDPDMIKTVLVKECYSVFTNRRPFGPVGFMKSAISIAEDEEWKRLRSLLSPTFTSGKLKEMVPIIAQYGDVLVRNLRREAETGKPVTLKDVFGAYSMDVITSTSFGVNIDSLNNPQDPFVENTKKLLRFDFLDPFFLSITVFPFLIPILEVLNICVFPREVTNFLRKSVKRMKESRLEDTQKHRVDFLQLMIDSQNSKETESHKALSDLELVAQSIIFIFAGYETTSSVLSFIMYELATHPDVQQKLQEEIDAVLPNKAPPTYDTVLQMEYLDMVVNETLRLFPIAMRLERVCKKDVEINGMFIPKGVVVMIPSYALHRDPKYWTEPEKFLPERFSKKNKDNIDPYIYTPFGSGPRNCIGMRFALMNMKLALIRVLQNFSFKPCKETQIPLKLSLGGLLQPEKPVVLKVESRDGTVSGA

For orientation: AC50 means the concentration at which the activity in the assay is half-maximal. Consider `CCOC(=O)CSC1=C(C#N)C(C)C2=C(O)CCCC2=N1` (stereo not drawn), for which the half-maximal activity concentration (AC50) at Cytochrome P450 2C9 is 22.4 µM (inconclusive).
Regarding `CN(Cc1ccco1)c1cc(-c2cccc(NS(C)(=O)=O)c2)ncn1`, the AC50 at Cytochrome P450 2D6 was 25.1 µM (inconclusive); at Cytochrome P450 2C19 it was 31.6 µM (inconclusive).
`CC(C)CCN1C(=O)c2ccc(-c3nc4ccccc4c(=O)o3)cc2C1=O`: the AC50 at Cytochrome P450 2C9 is 3.16 µM (inconclusive); on Cytochrome P450 1A2 it was 15.8 µM (inconclusive).
For `O=C(O)Cc1ccc2c(c1)N(S(=O)(=O)c1cccc(C(F)(F)F)c1)CC(C(=O)O)O2` (stereo not drawn), the AC50 at Cytochrome P450 2C19 was 25.1 µM (inconclusive); on Cytochrome P450 2C9, 15.8 µM (inconclusive).
On to `CCCC[C@H](CC)CNC(=N)NC(=N)NCCCCCCNC(=N)NC(=N)NC[C@@H](CC)CCCC`, for which the AC50 at Cytochrome P450 2C19 is 3.98 µM (inconclusive); on Cytochrome P450 2C9, 20 µM (inconclusive); at Cytochrome P450 1A2, 15.8 µM (inconclusive).
For `CC(=O)c1c(O)c(C)c(O)c(Cc2c(O)c3c(c(C(=O)/C=C\c4ccccc4)c2O)OC(C)(C)C=C3)c1O`, the AC50 at Cytochrome P450 1A2 was 31.6 µM (inconclusive).
On to `Nc1nc(SCCc2ccccc2)c2nc[nH]c2n1`, for which the AC50 on Cytochrome P450 2D6 and at Cytochrome P450 2C9 was 3.98 µM (inconclusive) each time.
For the compound `COc1cccc(OCc2nnc(SCC(=O)NCc3ccco3)n2C)c1`, the figures for the AC50 on Cytochrome P450 2C19 and at Cytochrome P450 2C9 were 25.1 µM (inconclusive) and 15.8 µM (inconclusive), respectively.
As to `OC(COc1ccc(OCC(O)CN2CCCCCC2)cc1)CN1CCCCCC1` (stereo not drawn), the AC50 at Cytochrome P450 2D6 was 15.8 µM (inconclusive); at Cytochrome P450 2C19 it was 1.78 µM (inconclusive).
Regarding `CCN1CCc2nc(NC(=O)c3ccc4c(c3)OCCO4)sc2C1`, the results for the AC50 on Cytochrome P450 2C9 and at Cytochrome P450 1A2 were 12.6 µM (inconclusive) and 3.16 µM (inconclusive), respectively.
As for `c1ccc(-c2cccc(N3CC4(CCNCC4)C3)c2)cc1`, the AC50 on Cytochrome P450 1A2 was 12.6 µM (inconclusive).
`CC1=C(C(=O)Nc2ccccc2)C(c2ccco2)NC(S)=N1` (stereo not drawn): the AC50 at Cytochrome P450 2C9 is 12.6 µM (inconclusive).
`COc1cc(NC(=O)COC(=O)c2nc3nc(C)cc(C)n3n2)cc(OC)c1`: the AC50 on Cytochrome P450 2D6 was 15.8 µM (inconclusive); at Cytochrome P450 2C9, 28.2 µM (inconclusive).
Turning to `N#Cc1ccccc1-c1ccc2ncnc(NC3CC3)c2c1`, the AC50 at Cytochrome P450 2D6 is 39.8 µM (inconclusive); at Cytochrome P450 2C19, 7.94 µM (inconclusive).
For `Cc1ccc(C(c2ccc(C)o2)c2cccc([N+](=O)[O-])c2O)o1`, the values for the concentration at half-maximal activity (AC50) on Cytochrome P450 2D6 and on Cytochrome P450 3A4 were 14.1 µM (inconclusive) and 28.2 µM (inconclusive), respectively.
Take `CCOC(=O)CC1NC(=O)c2ccccc21` (stereo not drawn): the AC50 on Cytochrome P450 1A2 is 28.2 µM (inconclusive).
Consider `CNc1cnn(-c2ccccc2)c(=O)c1Cl`, for which the results for the AC50 on Cytochrome P450 2C9 and on Cytochrome P450 1A2 were 1 µM (inconclusive) and 28.2 µM (inconclusive), respectively.
For the compound `N#Cc1cc(-c2ccc(Cl)cc2)cnc1Sc1ccc(F)cc1`, the values for the AC50 at Cytochrome P450 2C19, at Cytochrome P450 2C9 and on Cytochrome P450 3A4 were 1 µM (inconclusive), 7.94 µM (inconclusive) and 14.1 µM (inconclusive), respectively.
Take `CCOC(=O)CN(c1ccccn1)S(=O)(=O)c1ccccc1`: the AC50 is 31.6 µM (inconclusive) on Cytochrome P450 2C19 and 3.55 µM (inconclusive) on Cytochrome P450 2C9.
As to `CCOC(=O)CC(Nc1nc(N2CCOCC2)nc(N2CCOCC2)n1)c1ccccc1Cl` (stereo not drawn), the concentration at half-maximal activity (AC50) was 25.1 µM (inconclusive) at Cytochrome P450 3A4 and 10 µM (inconclusive) at Cytochrome P450 1A2.
In the same order, the values of `COCC(=O)N1CCC[C@@]2(CCN(C(c3ccccc3)c3ccccc3)C2)C1` are 10 µM (inconclusive) and 12.6 µM (inconclusive).
As for `COc1cccc(C2NC(c3cccc(OC)c3O)C(C)C(=O)C2C)c1O` (stereo not drawn), the figures for the concentration at half-maximal activity (AC50) on Cytochrome P450 2D6 and on Cytochrome P450 2C9 were 7.94 µM (inconclusive) and 10 µM (inconclusive), respectively.
Turning to `CCC(C)(C)n1nnnc1C(C(C)C)N(CCCO)Cc1cc2cc(C)ccc2nc1O` (stereo not drawn), the AC50 on Cytochrome P450 2C19 is 25.1 µM (inconclusive); at Cytochrome P450 1A2 it was 15.8 µM (inconclusive).
